From patent US20220152085A1, “COMBINATION IMMUNOREGULATION AND USES THEREOF” (Ohio State Innovation Foundation, priority 2019, published 2022)
Counter-ions that a name gives are not always drawn.

System: E.G7-OVA cells
Assay: Endocytic pathways: cellular uptake of PL1-Alexa-Fluor 647-labeled RNA nanoparticles with endocytic inhibitors, flow cytometry
Format: cell-based
Conditions: inhibitor 0.5 h before nanoparticles, flow cytometry after 3 h, FIG. 13
Method: E.G7-OVA cells were treated with 5-(N-Methyl-N-isopropyl)amiloride (EIPA), chlorpromazine hydrochloride (CPZ), or methyl-β-cyclodextrin (MβCD). After 0.5 h, cells were treated with PL1-Alexa-Fluor 647-labeled RNA nanoparticles. After 3 h, cells were analyzed by flow cytometry. All data are from n=3 biologically independent samples and are presented as mean±S.E.M. Statistical significance was analyzed by the two-tailed Student's t-test. *P<0.05.
Biomimetic compounds, phospholipids and glycolipids, are composed of a biomimetic head (phosphate head or glyco head), an ionizable amino core, and multiple hydrophobic tails (FIG. 11). These phospholipid and glycolipid derivatives (PLs and GLs) were synthesized according to previously reported procedures. See, for example, WO/2019/027999. […] Following this synthetic route, PL1-18 and GL1-16 materials were synthesized (FIG. 4C), which were characterized by […] nuclear magnetic resonance (NMR) and mass spectroscopy (MS) (FIG. 4C). Next, PLs and GLs nanoparticles were formulated with firefly luciferase mRNA (FLuc mRNA), and were characterized according to size, surface charge, and mRNA encapsulation efficiency (FIGS. 12A-12C). […]

Compound	inhibition of cellular uptake of PL1 nanoparticles [%]
CN(C)CCCN1c2ccccc2Sc2ccc(Cl)cc21 [CPZ, chlorpromazine hydrochloride]	56
methyl-β-cyclodextrin [MβCD]	39
